The record followed here is ChEMBL document CHEMBL4229403, “Protein Arginine Methyltransferase 5 (PRMT5) as an Anticancer Target and Its Inhibitor Discovery” (J Med Chem, 2018).

The pEC50 is the negative decadic logarithm of the EC50, by convention in mol/L. The low end stands for a high EC50, the high end for a low EC50. One may read the pIC50 as the negative decadic logarithm of the IC50, by convention in mol/L. As usually defined, the inhibition is the change of the read-out against control, counted positive when it falls. A word on the bioavailability: it is the share of a dose that reaches the circulation, judged against a reference dose that is usually intravenous. In general, Vd refers to the apparent volume that relates the amount in the body to the concentration in plasma or blood. Low readings indicate confinement near the circulation, high ones extensive tissue distribution. For orientation: clearance means the volume of plasma or blood freed of the substance per unit of time. High values mean efficient removal, low ones inefficient removal.

Data set [1] relates to Z-138. Nature of the data set: Antiproliferative activity against human Z138 cells after 3 days by cell titer-glo luminescent cell viability assays. The data set is classed as functional, cell-based. Conditions: Z-138, 72 h. A general note: In ATP-based viability assays light output follows the ATP content of the culture.
The next data set deals with JeKo-1. Kind of data set: Antiproliferative activity against human JeKo1 cells after 3 days by cell titer-glo luminescent cell viability assays. The data set is classed as functional, cell-based. Conditions: JeKo-1, 72 h.
The subject of data set [2] is Maver1. Kind of data set: Antiproliferative activity against human Maver1 cells after 3 days by cell titer-glo luminescent cell viability assays. Conditions: Maver1, 72 h. The data set is classed as functional, cell-based.
In data set [3] the target is T1, Protein arginine N-methyltransferase 5 (Homo sapiens, UniProt O14744). Nature of the data set: Inhibition of PRMT5 (unknown origin) using H4R3 as substrate by HTRF assay. In general terms: TR-FRET usually uses a lanthanide donor and a delayed reading to cut background.
T1 sequence (O14744 whole entry): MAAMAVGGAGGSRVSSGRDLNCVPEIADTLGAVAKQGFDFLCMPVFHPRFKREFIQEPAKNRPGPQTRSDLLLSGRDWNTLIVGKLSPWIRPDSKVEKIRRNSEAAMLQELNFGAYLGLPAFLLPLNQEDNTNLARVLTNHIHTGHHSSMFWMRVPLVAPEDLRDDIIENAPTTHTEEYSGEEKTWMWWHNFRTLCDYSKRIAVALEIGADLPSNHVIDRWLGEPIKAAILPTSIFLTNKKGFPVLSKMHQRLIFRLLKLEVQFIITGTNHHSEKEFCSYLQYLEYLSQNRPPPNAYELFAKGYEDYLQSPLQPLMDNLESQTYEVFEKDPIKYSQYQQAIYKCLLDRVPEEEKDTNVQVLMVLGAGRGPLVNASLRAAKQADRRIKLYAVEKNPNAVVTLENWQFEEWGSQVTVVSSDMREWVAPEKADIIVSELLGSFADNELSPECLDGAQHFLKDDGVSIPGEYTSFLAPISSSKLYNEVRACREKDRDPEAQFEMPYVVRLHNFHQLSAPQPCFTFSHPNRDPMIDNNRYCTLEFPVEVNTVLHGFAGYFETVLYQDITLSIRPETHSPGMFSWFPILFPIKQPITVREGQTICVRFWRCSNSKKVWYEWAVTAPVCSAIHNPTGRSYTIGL
Data set [4] has as its target PRMT5/MEP50 complex (Homo sapiens) (UniProt O14744+Q9BQA1). Kind of data set: Inhibition of human N-terminal FLAG-tagged PRMT5 (2 to end)/human N-terminal His-tagged MEP50 (2 to end) expressed in HEK293 cells at 50 uM using biotinylated H4 derived peptide as substrate preincubated for 15 mins followed by substrate addition measured after 60 mins ibn presence of [3H]SAM by liquid scintillation counting.

Another data set has as its target PRMT5/MEP50 complex (Homo sapiens, UniProt O14744). Nature of the data set: Inhibition of human N-terminal FLAG-tagged PRMT5 (2 to end)/human N-terminal His-tagged MEP50 (2 to end) expressed in HEK293 cells using biotinylated H4 derived peptide as substrate preincubated for 15 mins followed by substrate addition measured after 60 mins in presence of [3H]SAM by liquid scintillation counting. Format: cell-based.

Data set [5] concerns the target T1, Protein arginine N-methyltransferase 5. Kind of data set: Inhibition of human PRMT5 expressed in insect cells co-expressing His-tagged MEP50 using Ser-Gly-Arg-Gly- Lys-Gly-Gly-Lys-Gly-Leu-Gly-Lys-Gly-Gly-Ala-Lys-Arg-His-Arg-Lys-Val-NH2 peptide as substrate after 4 hrs in presence of SAM by Transcreene EPIGEN methyltransferase assays.
Data set [6] shares this target. Kind of data set: Inhibition of PRMT5 (unknown origin) at 50 uM by radioactive methylation assay.
A short description of data set [7]: Plasma concentration in po dosed Sprague-Dawley rat administered as single dose. Conditions: in vivo. The data set is classed as ADME, organism-based.
Data set [8] concerns the target T1, Protein arginine N-methyltransferase 5. Kind of data set: Inhibition of human 6xHis-tagged PRMT5 expressed in bacterial expression system using histone H2A as substrate after 2 hrs in presence of by S-[methyl-3H]adenosylmethionine by liquid scintillation counting.
The nature of data set [9]: Plasma concentration in iv dosed Sprague-Dawley rat administered as single dose. The data set is classed as ADME, organism-based. Conditions: in vivo.
Data set [10] can be described thus: Antiproliferative activity against human Th1 cells by trypan blue exclusion assay. Format: functional, cell-based.
Data set [11] can be described thus: Antiproliferative activity against human TH2 cells by trypan blue exclusion assay. The data set is classed as functional, cell-based.
Data set [12] in a line: Oral bioavailability in mouse at 10 mg/kg. Format: ADME, organism-based. Conditions: in vivo.
For data set [13], the system named is Z-138. Nature of the data set: Antitumor activity against human Z138 cells xenografted in SCID mouse assessed as tumor growth inhibition at 200 mg/kg, po BID administered for 21 days. Format: functional. Conditions: Z-138, po, 504 h, read-out: TGI. A general note: A xenograft is tissue or cells of one species grown in another, often human tumour cells in immunodeficient mice.

A short description of data set [14]: Volume of distribution in mouse at 2 mg/kg, iv. The data set is classed as ADME, organism-based. Conditions: in vivo.
Data set [15] concerns Maver1. Kind of data set: Antitumor activity against human Maver1 cells xenografted in SCID mouse assessed as tumor growth inhibition at 200 mg/kg, po BID administered for 21 days. The data set is classed as functional. Conditions: 504 h, read-out: TGI.
Data set [16] is described as follows: Plasma clearance in mouse at 2 mg/kg, iv. The data set is classed as ADME, organism-based.

pEC50, pIC50: −log10 of the molar value.

Sequence of PRMT5/MEP50 complex (O14744 whole entry): as above
Sequence of PRMT5/MEP50 complex (Q9BQA1 whole entry, further chain): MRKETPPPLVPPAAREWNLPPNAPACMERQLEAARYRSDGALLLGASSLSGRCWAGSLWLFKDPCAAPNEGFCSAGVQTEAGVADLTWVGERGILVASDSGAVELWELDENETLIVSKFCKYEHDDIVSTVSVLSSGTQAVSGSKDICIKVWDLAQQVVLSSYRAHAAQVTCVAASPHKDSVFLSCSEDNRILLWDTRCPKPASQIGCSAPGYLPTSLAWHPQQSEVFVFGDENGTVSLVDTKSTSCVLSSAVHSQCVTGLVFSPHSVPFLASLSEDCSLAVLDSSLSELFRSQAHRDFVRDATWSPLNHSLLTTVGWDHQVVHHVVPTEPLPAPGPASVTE

For `OC(CNCc1c(OCc2ccccc2)ccc2ccccc12)c1ccccc1` (stereo not given), the pEC50 was 4.90 in the data set with Z-138 [1], 4.98 in the data set on JeKo-1 and 4.90 in the data set with Maver1 [2].
`O=C(NC[C@H](O)CN1CCCCC1)c1cc(NC2COC2)ncn1` had a pIC50 in [3] of less than 5.00.
As for `OCCNCc1c(OCc2ccc(Cl)cc2)ccc2ccccc12`, in data set [4], the inhibition came out at 69%. The pIC50 on PRMT5/MEP50 complex was 4.45.
Regarding `O=C(NC[C@H](O)CN1CCc2ccccc2C1)c1ccc(C(=O)N2CCOCC2)cc1`, the pIC50 in [5] was 6.96.
As for `CCn1c2ccccc2c2cc(CNCc3ccccn3)ccc21`, the inhibition in data set [6] was found to be 7.8%.
Consider `CCn1c2ccccc2c2cc(CNC3CCCc4ccccc43)ccc21` (stereo not given), for which the concentration in data set [7] is 3.57 µM; in data set [9] it was 7.88 µM. The pIC50 in data set [8] was 6.29.
Consider `CCn1c2ccc(Br)cc2c2cc(CNCc3ccccc3OC)ccc21`, for which the pIC50 in data set [10] was 5.96; in data set [11], 5.40.
`CC(=O)N1CCC(Oc2nccc(C(=O)NC[C@@H](O)CNC3Cc4ccccc4C3)c2Cl)CC1`: in data set [5], the pIC50 is 6.98.
For the molecule `OCCNCc1cccc2ccccc12`, in data set [4], the inhibition turned out to be 2%.
In turn, `O=C(NC[C@H](O)CN1CCc2ccccc2C1)c1cc(NC2COC2)ncn1` showed a bioavailability in data set [12] of 69%. For the same molecule, the inhibition in vivo at 200 mg/kg in the data set on Z-138 [13] and in the data set with Maver1 [15] was more than 93% in each case. This molecule displayed a Vd in [14] of 1.7 L/kg. The same molecule showed a clearance in data set [16] of 30 mL/min/kg.
